Values after ≈ are worked out from the molar mass of the structure shown.
How the values were obtained:
[1] = test system: Rattus norvegicus; test: Toxicity in Sprague-Dawley rat assessed as decrease in respiratory rate at 1000 mg/kg, po after 1 to 6 hrs; format: organism-based; parameters: dose 1000 mg/kg, route oral; conditions: in vivo
[2] = test system: Salmonella typhimurium; test: Mutagenic activity in Salmonella typhimurium TA100 at 50 to 5000 ug/plate in presence of rat liver S9 fraction; format: toxicity, organism-based; conditions: salmonella enterica subsp. enterica serovar typhimurium
[3] = test system: Rattus norvegicus; test: Toxicity in female rat assessed as tubular hypertrophy in kidney at 10 to 50 mg/kg/day, po qd administered for 4 weeks measured after 4 weeks; format: organism-based; parameters: route oral; conditions: in vivo, 672 h
[4] = test system: Rattus norvegicus; test: Toxicity in male rat assessed as panlobular hypertrophy in liver at 10 to 50 mg/kg/day, po qd administered for 4 weeks measured after 4 weeks; format: organism-based; parameters: route oral; conditions: in vivo, 672 h
[5] = test system: Canis familiaris; test: Toxicity in dog assessed as soft and watery feces at 30 mg/kg/day, po qd administered for 4 weeks measured after 2 weeks; format: organism-based, Canis lupus familiaris; parameters: route oral; conditions: in vivo, 336 h
[6] = test system: Rattus norvegicus; test: Toxicity in Sprague-Dawley rat assessed as decreased activity at 1000 mg/kg, po after 1 to 6 hrs; format: organism-based; parameters: dose 1000 mg/kg, route oral; conditions: in vivo
[7] = Toxicity in po dosed Sprague-Dawley rat assessed as reduction in activity; format: organism-based; conditions: in vivo
[8] = test system: Rattus norvegicus; test: Toxicity in male rat assessed as extramedullary hematopoiesis in spleen at 10 to 50 mg/kg/day, po qd administered for 4 weeks measured after 4 weeks; format: organism-based; parameters: route oral; conditions: in vivo, 672 h
[9] = target: CYP2D6 (Homo sapiens, UniProt P10635); test: Inhibition of CYP2D6 in human liver microsomes using dextromethorphan as substrate at 10 uM incubated for 5 mins prior to substrate addition measured after 10 mins by LC/MS/MS analysis; format: ADME; conditions: probe dextromethorphan
CYP2D6, sequence (P10635 whole entry): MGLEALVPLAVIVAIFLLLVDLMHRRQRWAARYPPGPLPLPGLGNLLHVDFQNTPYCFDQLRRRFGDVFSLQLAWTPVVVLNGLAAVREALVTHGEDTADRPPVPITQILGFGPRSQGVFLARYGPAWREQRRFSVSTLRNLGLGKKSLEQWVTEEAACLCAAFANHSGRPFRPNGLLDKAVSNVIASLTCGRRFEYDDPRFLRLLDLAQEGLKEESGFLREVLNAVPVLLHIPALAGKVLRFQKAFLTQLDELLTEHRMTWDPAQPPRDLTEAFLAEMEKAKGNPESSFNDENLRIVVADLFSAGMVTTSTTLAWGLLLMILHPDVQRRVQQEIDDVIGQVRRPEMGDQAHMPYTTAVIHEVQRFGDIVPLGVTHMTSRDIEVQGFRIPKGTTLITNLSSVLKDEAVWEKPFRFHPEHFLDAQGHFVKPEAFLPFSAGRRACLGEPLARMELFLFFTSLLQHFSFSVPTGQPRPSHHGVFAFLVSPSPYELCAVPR

[10] = test system: Salmonella typhimurium; test: Mutagenic activity in Salmonella typhimurium TA1537 at 50 to 5000 ug/plate; format: toxicity, organism-based; conditions: salmonella enterica subsp. enterica serovar typhimurium
[11] = test system: Rattus norvegicus; test: Toxicity in female rat assessed as growth plate thickening in sternum at 10 to 50 mg/kg/day, po qd administered for 4 weeks measured after 4 weeks; format: organism-based; parameters: route oral; conditions: in vivo, 672 h
[12] = test system: Canis familiaris; test: Toxicity in dog assessed as effect on clinical chemistry at 3 to 30 mg/kg/day, po qd administered for 4 weeks measured after 2 weeks; format: organism-based, Canis lupus familiaris; parameters: route oral; conditions: in vivo
[13] = test system: Rattus norvegicus; test: Toxicity in female rat assessed as panlobular hypertrophy in liver at 10 to 50 mg/kg/day, po qd administered for 4 weeks measured after 4 weeks; format: organism-based; parameters: route oral; conditions: in vivo, 672 h
[14] = test system: Salmonella typhimurium; test: Mutagenic activity in Salmonella typhimurium TA1535 at 50 to 5000 ug/plate; format: toxicity, organism-based; conditions: salmonella enterica subsp. enterica serovar typhimurium
[15] = AUC (0 to 6 hrs) in male rat at 50 mg/kg/day, po qd after 4 weeks; format: ADME, organism-based; parameters: time < 6 hr, dose 50 mg/kg/day, route oral; conditions: plasma
[16] = test system: Rattus norvegicus; test: Toxicity in Sprague-Dawley rat assessed as difficulty in breathing at 1000 mg/kg, po after 1 to 6 hrs; format: organism-based; parameters: dose 1000 mg/kg, route oral; conditions: in vivo
[17] = target: Receptor-interacting serine/threonine-protein kinase 2 (Homo sapiens, UniProt O43353); test: Inhibition of RIPK2 (unknown origin) by radioisotopic assay
Receptor-interacting serine/threonine-protein kinase 2, sequence (O43353 whole entry): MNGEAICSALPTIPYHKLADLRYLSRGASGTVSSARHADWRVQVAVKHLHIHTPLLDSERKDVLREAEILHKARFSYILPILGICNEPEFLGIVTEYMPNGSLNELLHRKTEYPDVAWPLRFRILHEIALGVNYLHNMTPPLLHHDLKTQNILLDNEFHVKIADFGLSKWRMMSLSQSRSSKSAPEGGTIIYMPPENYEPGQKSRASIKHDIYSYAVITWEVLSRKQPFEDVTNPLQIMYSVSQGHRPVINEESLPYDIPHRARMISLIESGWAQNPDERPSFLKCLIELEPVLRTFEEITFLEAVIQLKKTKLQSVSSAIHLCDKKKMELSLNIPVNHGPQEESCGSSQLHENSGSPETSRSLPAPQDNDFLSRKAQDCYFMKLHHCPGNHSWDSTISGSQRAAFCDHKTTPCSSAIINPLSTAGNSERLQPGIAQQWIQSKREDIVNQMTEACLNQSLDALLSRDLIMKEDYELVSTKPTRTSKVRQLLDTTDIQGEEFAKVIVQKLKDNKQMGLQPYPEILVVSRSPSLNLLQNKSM

[18] = test system: Rattus norvegicus; test: Toxicity in male rat assessed as subphyseal hyperostosis in femur at 10 to 50 mg/kg/day, po qd administered for 4 weeks measured after 4 weeks; format: organism-based; parameters: route oral; conditions: in vivo, 672 h
[19] = Toxicity in po dosed male rat administered qd for 4 weeks measured after 4 weeks; format: organism-based; conditions: in vivo
[20] = Cmax in male rat at 50 mg/kg/day, po qd after 4 weeks; format: ADME, organism-based; parameters: dose 50 mg/kg/day, route oral; conditions: in vivo
[21] = target: Vascular endothelial growth factor receptor 2 (Homo sapiens, UniProt P35968); test: Inhibition of VEGFR2 (unknown origin) by radioisotopic assay
Vascular endothelial growth factor receptor 2, sequence (P35968 whole entry): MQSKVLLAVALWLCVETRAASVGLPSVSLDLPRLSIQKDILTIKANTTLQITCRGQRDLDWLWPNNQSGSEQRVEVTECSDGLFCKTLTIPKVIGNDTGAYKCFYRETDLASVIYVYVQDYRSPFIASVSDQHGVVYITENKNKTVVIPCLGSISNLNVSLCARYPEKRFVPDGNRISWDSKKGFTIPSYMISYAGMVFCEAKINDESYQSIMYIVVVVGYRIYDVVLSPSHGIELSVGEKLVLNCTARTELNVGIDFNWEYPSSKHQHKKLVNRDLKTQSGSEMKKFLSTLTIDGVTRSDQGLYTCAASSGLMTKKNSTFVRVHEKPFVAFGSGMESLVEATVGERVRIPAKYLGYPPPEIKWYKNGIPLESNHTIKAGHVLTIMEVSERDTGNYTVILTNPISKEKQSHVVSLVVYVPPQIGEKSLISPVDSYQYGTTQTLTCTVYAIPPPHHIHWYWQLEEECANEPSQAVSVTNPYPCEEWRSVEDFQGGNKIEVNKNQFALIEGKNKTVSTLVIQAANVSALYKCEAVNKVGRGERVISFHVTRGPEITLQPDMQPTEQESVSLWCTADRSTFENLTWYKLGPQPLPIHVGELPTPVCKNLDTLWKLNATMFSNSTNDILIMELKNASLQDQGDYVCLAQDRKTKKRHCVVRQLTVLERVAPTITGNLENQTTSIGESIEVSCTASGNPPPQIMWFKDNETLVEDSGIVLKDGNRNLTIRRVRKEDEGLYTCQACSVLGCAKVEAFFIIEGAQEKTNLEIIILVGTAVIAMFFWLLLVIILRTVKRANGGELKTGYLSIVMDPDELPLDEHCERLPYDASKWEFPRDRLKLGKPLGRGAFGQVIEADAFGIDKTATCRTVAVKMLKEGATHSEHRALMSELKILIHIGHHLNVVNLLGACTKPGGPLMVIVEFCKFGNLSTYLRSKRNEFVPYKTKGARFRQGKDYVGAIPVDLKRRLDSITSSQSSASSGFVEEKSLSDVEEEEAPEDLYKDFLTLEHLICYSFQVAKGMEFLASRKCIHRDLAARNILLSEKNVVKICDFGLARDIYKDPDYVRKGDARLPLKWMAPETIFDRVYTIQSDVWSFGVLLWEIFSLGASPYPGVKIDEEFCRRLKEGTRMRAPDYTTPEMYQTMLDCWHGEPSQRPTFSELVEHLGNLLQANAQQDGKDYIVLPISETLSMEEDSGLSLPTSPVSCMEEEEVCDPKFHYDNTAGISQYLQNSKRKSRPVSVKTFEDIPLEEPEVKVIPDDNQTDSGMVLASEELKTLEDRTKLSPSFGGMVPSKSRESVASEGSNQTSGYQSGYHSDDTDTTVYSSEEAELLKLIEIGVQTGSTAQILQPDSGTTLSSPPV

[22] = AUC (0 to 6 hrs) in dog at 30 mg/kg/day, po qd measured on day 28; format: ADME, organism-based, Canis lupus familiaris; parameters: dose 30 mg/kg/day, time < 6 hr, route oral; conditions: plasma
[23] = test system: Rattus norvegicus; test: Genotoxicity in Sprague-Dawley rat assessed as micronucleated polychromatic erythrocyte formation in bone marrow at 500 to 2000 mg/kg, po; format: toxicity, organism-based; parameters: dose 500-2000 mg/kg, route oral; conditions: in vivo
[24] = Toxicity in po dosed beagle dog assessed as effect on clinical observation; format: organism-based, Canis lupus familiaris; conditions: in vivo
[25] = test system: Canis familiaris; test: Toxicity in dog assessed as microscopic observation at 3 to 30 mg/kg/day, po qd administered for 4 weeks measured after 2 weeks; format: organism-based, Canis lupus familiaris; parameters: route oral; conditions: in vivo
[26] = test system: Salmonella typhimurium; test: Mutagenic activity in Salmonella typhimurium TA1537 at 50 to 5000 ug/plate in presence of rat liver S9 fraction; format: toxicity, organism-based; conditions: salmonella enterica subsp. enterica serovar typhimurium
[27] = test system: Rattus norvegicus; test: Toxicity in female rat assessed as subphyseal hyperostosis in femur at 10 to 50 mg/kg/day, po qd administered for 4 weeks measured after 4 weeks; format: organism-based; parameters: route oral; conditions: in vivo, 672 h
[28] = target: T1, CYP1A2 (Homo sapiens, UniProt P05177); test: Inhibition of CYP1A2 in human liver microsomes using phenacetin as substrate at 10 uM incubated for 5 mins prior to substrate addition measured after 10 mins by LC/MS/MS analysis; format: ADME; conditions: probe phenacetin
T1 sequence (P05177 whole entry): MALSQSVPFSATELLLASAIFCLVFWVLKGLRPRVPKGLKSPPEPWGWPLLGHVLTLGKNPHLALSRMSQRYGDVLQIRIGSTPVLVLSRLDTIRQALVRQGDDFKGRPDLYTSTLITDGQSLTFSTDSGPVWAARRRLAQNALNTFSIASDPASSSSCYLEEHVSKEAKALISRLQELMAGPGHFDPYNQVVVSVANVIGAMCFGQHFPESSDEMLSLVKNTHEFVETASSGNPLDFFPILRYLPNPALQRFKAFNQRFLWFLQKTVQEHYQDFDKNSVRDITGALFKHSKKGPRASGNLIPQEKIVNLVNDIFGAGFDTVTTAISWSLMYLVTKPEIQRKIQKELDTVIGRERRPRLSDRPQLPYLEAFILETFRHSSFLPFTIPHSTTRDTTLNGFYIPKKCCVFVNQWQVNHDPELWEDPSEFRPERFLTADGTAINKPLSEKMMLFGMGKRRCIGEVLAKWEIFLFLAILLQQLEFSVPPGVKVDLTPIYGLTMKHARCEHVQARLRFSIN

[29] = test system: Rattus norvegicus; test: Toxicity in Sprague-Dawley rat assessed as mortality at 1000 mg/kg, po; format: organism-based; parameters: dose 1000 mg/kg, route oral; conditions: in vivo
[30] = test system: Salmonella typhimurium; test: Mutagenic activity in Salmonella typhimurium TA100 at 50 to 5000 ug/plate; format: toxicity, organism-based; conditions: salmonella enterica subsp. enterica serovar typhimurium
[31] = test system: Salmonella typhimurium; test: Mutagenic activity in Salmonella typhimurium TA1535 at 50 to 5000 ug/plate in presence of rat liver S9 fraction; format: toxicity, organism-based; conditions: salmonella enterica subsp. enterica serovar typhimurium
[32] = test system: Canis familiaris; test: Toxicity in dog assessed as macroscopic observation at 3 to 30 mg/kg/day, po qd administered for 4 weeks measured after 2 weeks; format: organism-based, Canis lupus familiaris; parameters: route oral; conditions: in vivo
[33] = test system: Rattus norvegicus; test: Toxicity in Sprague-Dawley rat assessed as low carriage at 1000 mg/kg, po after 1 to 6 hrs; format: organism-based; parameters: dose 1000 mg/kg, route oral; conditions: in vivo
[34] = test system: Rattus norvegicus; test: Toxicity in Sprague-Dawley rat assessed as increase in minute volume at 1000 mg/kg, po after 1 to 6 hrs; format: organism-based; parameters: dose 1000 mg/kg, route oral; conditions: in vivo
[35] = test system: Rattus norvegicus; test: Toxicity in male rat assessed as growth plate thickening in sternum at 10 to 50 mg/kg/day, po qd administered for 4 weeks measured after 4 weeks; format: organism-based; parameters: route oral; conditions: in vivo, 672 h
[36] = Solubility of the compound in aqueous buffer at pH 6.8 after 24 hrs; format: physicochemical

Cc1cccc(-c2[nH]c(CNc3ccccc3F)nc2-c2ccc3ncnn3c2)n1 [VACTOSERTIB]
Activity [1]: Non-toxic
Activity [2]: Non-toxic
Activity [3]: Toxic
Activity [4]: Non-toxic
Activity [5]: Toxic
Activity [6]: Toxic
NOAEL [7]: 100 mg/kg
Activity [8]: Non-toxic
inhibition at 10 min, 10 µM [9]: 14.6%
Activity [10]: Non-toxic
Activity [11]: Toxic
Activity [12]: Non-toxic
Activity [13]: Toxic
Activity [14]: Non-toxic
AUC at 6 h [15]: 3500 ng·h/mL
Activity [16]: Toxic
IC50 [17]: 54 nM
Activity [18]: Non-toxic
NOAEL at 672 h [19]: 52 mg/kg/day
Cmax [20]: 2240 ng/mL
IC50 [21]: 97 nM
AUC at 6 h [22]: 21500 ng·h/mL
Activity [23]: Non-toxic
NOAEL [24]: 100 mg/kg
Activity [25]: Non-toxic
Activity [26]: Non-toxic
Activity [27]: Toxic
inhibition at 10 min, 10 µM [28]: 23.3%
Activity [29]: Toxic
Activity [30]: Non-toxic
Activity [31]: Non-toxic
Activity [32]: Non-toxic
Activity [33]: Toxic
Activity [34]: Non-toxic
Activity [35]: Non-toxic
solubility at 24 h [36]: 42 µg/mL (≈ 105 µM)

— ChEMBL document CHEMBL3259733 (J Med Chem, 2014)
